# Source: patent publication US12122767B2, “Bicyclic heterocycles as FGFR inhibitors” (Incyte Corporation, priority 2019, dated 2024)
# Target: T1, FGFR3 enzyme (Millipore) (Homo sapiens, UniProt P22607)
# T1 construct: purchased Millipore
# Experiment: FGFR Enzymatic Assay (peptide phosphorylation, FRET)
# Format: biochemical
# Conditions: pre-incubated for 4 hours; ATP 140 μM, peptide 500 nM
# Experimental: The inhibitor potency of the exemplified compounds was measured in an enzyme assay that measures peptide phosphorylation using FRET measurements to detect product formation. Inhibitors were serially diluted in DMSO and a volume of 0.5 μL was transferred to the wells of a 384-well plate. For FGFR3, a 10 μL volume of FGFR3 enzyme (Millipore) diluted in assay buffer (50 mM HEPES, 10 mM MgCl2, 1 mM EGTA, 0.01% Tween-20, 5 mM DTT, pH 7.5) was added to the plate and pre-incubated for a time between 5-10 minutes and up to 4 hours. Appropriate controls (enzyme blank and enzyme with no inhibitor) were included on the plate. The assay was initiated by the addition of a 10 μL solution containing biotinylated EQEDEPEGDYFEWLE peptide substrate (SEQ ID NO: 1) and ATP (final concentrations of 500 nM and 140 μM respectively) in assay buffer to the wells. The plate was incubated at 25° C. for 1 hr. The reactions were ended with the addition of 10 μL/well of quench solution (50 mM Tris, 150 mM NaCl, 0.5 mg/mL BSA, pH 7.8; 30 mM EDTA with Perkin Elmer Lance Reagents at 3.75 nM Eu-antibody PY20 and 180 nM APC-Streptavidin). The plate was allowed to equilibrate for ˜1 hr before scanning the wells on a PheraStar plate reader (BMG Labtech).
# GraphPad prism3 was used to analyze the data. The IC50 values were derived by fitting the data to the equation for a sigmoidal dose-response with a variable slope. Y=Bottom+(Top-Bottom)/(1+10^((Log IC50−X)*HillSlope)) where X is the logarithm of concentration and Y is the response.
# Table 1 provides IC50 data for compounds of the invention assayed in the FGFR Enzymatic Assay after dilution in assay buffer, added to the plate and pre-incubated for 4 hours.
# T1 sequence (P22607 23-806): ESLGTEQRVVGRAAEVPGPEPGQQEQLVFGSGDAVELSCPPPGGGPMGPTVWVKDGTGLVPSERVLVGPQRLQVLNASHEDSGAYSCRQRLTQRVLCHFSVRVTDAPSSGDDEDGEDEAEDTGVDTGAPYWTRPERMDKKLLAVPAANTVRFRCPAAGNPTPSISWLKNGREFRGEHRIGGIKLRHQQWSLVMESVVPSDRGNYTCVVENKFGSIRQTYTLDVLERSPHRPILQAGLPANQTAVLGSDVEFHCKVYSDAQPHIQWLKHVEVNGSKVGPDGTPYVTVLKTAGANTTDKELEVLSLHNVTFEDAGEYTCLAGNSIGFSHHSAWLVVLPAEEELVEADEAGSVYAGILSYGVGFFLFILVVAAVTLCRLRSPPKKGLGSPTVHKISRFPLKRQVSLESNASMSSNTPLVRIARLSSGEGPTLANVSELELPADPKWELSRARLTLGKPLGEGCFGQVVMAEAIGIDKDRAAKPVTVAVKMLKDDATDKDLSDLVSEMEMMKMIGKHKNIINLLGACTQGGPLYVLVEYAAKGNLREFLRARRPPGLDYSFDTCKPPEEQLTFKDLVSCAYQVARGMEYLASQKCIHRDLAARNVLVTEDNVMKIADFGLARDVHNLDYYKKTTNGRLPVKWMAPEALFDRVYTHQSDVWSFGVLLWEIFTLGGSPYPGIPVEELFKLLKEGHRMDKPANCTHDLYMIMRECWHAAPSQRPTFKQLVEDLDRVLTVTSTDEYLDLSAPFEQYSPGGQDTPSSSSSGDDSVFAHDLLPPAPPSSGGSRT
row,Structure (SMILES),IC50 [nM]
1,"COc1cc2[nH]nc(-c3cnn(C)c3)c2cc1C(=O)Nc1c(C)cccc1C [Example 1, N-(2,6-Dimethylphenyl)-6-methoxy-3-(1-methyl-1H-pyrazol-4-yl)-1H-indazole-5-carboxamide]",< 10
2,"COc1cc2[nH]nc(-c3cnn(C)c3)c2cc1C(=O)Nc1c(F)cccc1Cl [Example 2, N-(2-Chloro-6-fluorophenyl)-6-methoxy-3-(1-methyl-1H-pyrazol-4-yl)-1H-indazole-5-carboxamide]",< 10
3,"COc1cc2[nH]nc(-c3cnn(C)c3)c2cc1C(=O)Nc1c(C)cccc1Cl [Example 3, N-(2-Chloro-6-methylphenyl)-6-methoxy-3-(1-methyl-1H-pyrazol-4-yl)-1H-indazole-5-carboxamide]",< 10
4,"COc1cc2[nH]nc(-c3cnn(C)c3)c2cc1C(=O)Nc1c(C)cccc1C(F)(F)F [Example 4, 6-Methoxy-3-(1-methyl-1H-pyrazol-4-yl)-N-(2-methyl-6-(trifluoromethyl)phenyl)-1H-indazole-5-carboxamide]",< 10
5,"COc1cc2[nH]nc(-c3cnn(C)c3)c2cc1C(=O)Nc1c(C)cc(F)cc1C [Example 5, N-(4-Fluoro-2,6-dimethylphenyl)-6-methoxy-3-(1-methyl-1H-pyrazol-4-yl)-1H-indazole-5-carboxamide]",< 10
6,"CCc1cccc(C)c1NC(=O)c1cc2c(-c3cnn(C)c3)n[nH]c2cc1OC [Example 6, N-(2-Ethyl-6-methylphenyl)-6-methoxy-3-(1-methyl-1H-pyrazol-4-yl)-1H-indazole-5-carboxamide]",< 10
7,"CCc1cccc(CC)c1NC(=O)c1cc2c(-c3cnn(C)c3)n[nH]c2cc1OC [Example 7, N-(2,6-Diethylphenyl)-6-methoxy-3-(1-methyl-1H-pyrazol-4-yl)-1H-indazole-5-carboxamide]",< 10
8,"COc1cc2[nH]nc(-c3cnn(C)c3)c2cc1C(=O)Nc1c(C)cccc1F [Example 8, N-(2-Fluoro-6-methylphenyl)-6-methoxy-3-(1-methyl-1H-pyrazol-4-yl)-1H-indazole-5-carboxamide]",< 10
9,"COc1cc2[nH]nc(-c3cnn(C)c3)c2cc1C(=O)Nc1c(C)cccc1OC [Example 9, 6-Methoxy-N-(2-methoxy-6-methylphenyl)-3-(1-methyl-1H-pyrazol-4-yl)-1H-indazole-5-carboxamide]",30 to 200
10,"COc1cc(C)c(NC(=O)c2cc3c(-c4cnn(C)c4)n[nH]c3cc2OC)c(C)c1 [Example 10, 6-Methoxy-N-(4-methoxy-2,6-dimethylphenyl)-3-(1-methyl-1H-pyrazol-4-yl)-1H-indazole-5-carboxamide]",30 to 200
11,"COc1cc2[nH]nc(-c3cnn(C)c3)c2cc1C(=O)Nc1c(C)cc(C#N)cc1C [Example 11, N-(4-Cyno-2,6-dimethylphenyl)-6-methoxy-3-(1-methyl-1H-pyrazol-4-yl)-1H-indazole-5-carboxamide]",10 to 30
12,"Cc1cc2[nH]nc(-c3cnn(C)c3)c2cc1C(=O)Nc1c(C)cccc1C [Example 12, N-(2,6-Dimethylphenyl)-6-methyl-3-(1-methyl-1H-pyrazol-4-yl)-1H-indazole-5-carboxamide]",≥ 200
13,"Cc1cccc(C)c1NC(=O)c1cc2c(-c3cnn(C)c3)n[nH]c2cc1Cl [Example 13, 6-Chloro-N-(2,6-dimethylphenyl)-3-(1-methyl-1H-pyrazol-4-yl)-1H-indazole-5-carboxamide]",30 to 200
14,"Cc1cc2[nH]nc(-c3cnn(C)c3)c2cc1C(=O)Nc1c(C)cccc1F [Example 14, N-(2-Fluoro-6-methylphenyl)-6-methyl-3-(1-methyl-1H-pyrazol-4-yl)-1H-indazole-5-carboxamide]",≥ 200
15,"Cc1cccc(F)c1NC(=O)c1cc2c(-c3cnn(C)c3)n[nH]c2cc1Cl [Example 15, 6-Chloro-N-(2-fluoro-6-methylphenyl)-3-(1-methyl-1H-pyrazol-4-yl)-1H-indazole-5-carboxamide]",≥ 200
16,"Cn1cc(-c2n[nH]c3cc(Cl)c(C(=O)Nc4c(F)cccc4Cl)cc23)cn1 [Example 16, 6-Chloro-N-(2-chloro-6-fluorophenyl)-3-(1-methyl-1H-pyrazol-4-yl)-1H-indazole-5-carboxamide]",≥ 200

row,Structure (SMILES),IC50 [nM]
1,"COc1cc2[nH]nc(-c3cnn(C4CCC4)c3)c2cc1C(=O)Nc1c(F)cccc1Cl [Example 17, N-(2-Chloro-6-fluorophenyl)-3-(1-cyclobutyl-1H-pyrazol-4-yl)-6-methoxy-1H-indazole-5-carboxamide]",< 10
2,"COc1cc2[nH]nc(-c3cnn(C4CC4)c3)c2cc1C(=O)Nc1c(F)cccc1Cl [Example 18, N-(2-Chloro-6-fluorophenyl)-3-(1-cyclopropyl-1H-pyrazol-4-yl)-6-methoxy-1H-indazole-5-carboxamide]",10 to 30
3,"CCNC(=O)Cn1cc(-c2n[nH]c3cc(OC)c(C(=O)Nc4c(C)cccc4C)cc23)cn1 [Example 19, N-(2,6-Dimethylphenyl)-3-(1-(2-(ethylamino)-2-oxoethyl)-1H-pyrazol-4-yl)-6-methoxy-1H-indazole-5-carboxamide]",10 to 30
4,"COc1cc2[nH]nc(-c3ccc(N4CCN(C(C)=O)CC4)cc3)c2cc1C(=O)Nc1c(C)cccc1C [Example 20, 3-(4-(4-Acetylpiperazin-1-yl)phenyl)-N-(2,6-dimethylphenyl)-6-methoxy-1H-indazole-5-carboxamide]",< 10
5,"COc1cc2[nH]nc(-c3ccc(N4CCN(C)CC4)cc3)c2cc1C(=O)Nc1c(C)cccc1C [Example 21, N-(2,6-Dimethylphenyl)-6-methoxy-3-(4-(4-methylpiperazin-1-yl)phenyl)-1H-indazole-5-carboxamide]",< 10
6,"COc1cc2[nH]nc(-c3cnn(C4CN(C(=O)N(C)C)C4)c3)c2cc1C(=O)Nc1c(C)cccc1C [Example 22, 3-(1-(1-(Dimethylcarbamoyl)azetidin-3-yl)-1H-pyrazol-4-yl)-N-(2,6-dimethylphenyl)-6-methoxy-1H-indazole-5-carboxamide]",< 10
7,"CCOC(=O)N1CC(n2cc(-c3n[nH]c4cc(OC)c(C(=O)Nc5c(C)cccc5C)cc34)cn2)C1 [Example 23, Ethyl 3-(4-(5-((2,6-Dimethylphenyl)carbamoyl)-6-methoxy-1H-indazol-3-yl)-1H-pyrazol-1-yl)azetidine-1-carboxylate]",< 10
8,"COC(=O)N1CCC(n2cc(-c3n[nH]c4cc(OC)c(C(=O)Nc5c(C)cccc5C)cc34)cn2)CC1 [Example 24, Methyl 4-(4-(5-((2,6-dimethylphenyl)carbamoyl)-6-methoxy-1H-indazol-3-yl)-1H-pyrazol-1-yl)piperidine-1-carboxylate]",< 10
9,"COc1cc2[nH]nc(-c3cnn(C4CCN(C(C)=O)CC4)c3)c2cc1C(=O)Nc1c(C)cccc1C [Example 25, 3-(1-(1-Acetylpiperidin-4-yl)-1H-pyrazol-4-yl)-N-(2,6-dimethylphenyl)-6-methoxy-1H-indazole-5-carboxamide]",< 10
10,"COc1cc2[nH]nc(-c3ccc(N4CCN(C)CC4)nc3)c2cc1C(=O)Nc1c(C)cccc1C [Example 26, N-(2,6-Dimethylphenyl)-6-methoxy-3-(6-(4-methylpiperazin-1-yl)pyridin-3-yl)-1H-indazole-5-carboxamide]",< 10
11,"COc1cc2[nH]nc(-c3cnn(C)c3)c2cc1C(=O)Nc1c(C)cc(NS(C)(=O)=O)cc1C [Example 27, N-(2,6-Dimethyl-4-(methylsulfonamido)phenyl)-6-methoxy-3-(1-methyl-1H-pyrazol-4-yl)-1H-indazole-5-carboxamide]",10 to 30
12,"COc1cc2[nH]nc(-c3cnn(C)c3)c2cc1C(=O)Nc1c(C)cc(NC(C)=O)cc1C [Example 28, N-(4-Acetamido-2,6-dimethylphenyl)-6-methoxy-3-(1-methyl-1H-pyrazol-4-yl)-1H-indazole-5-carboxamide]",30 to 200
13,"COc1cc2[nH]nc(-c3cnn(C)c3)c2cc1C(=O)Nc1c(C)cc(N(C)C)cc1C [Example 29, N-(4-(Dimethylamino)-2,6-dimethylphenyl)-6-methoxy-3-(1-methyl-1H-pyrazol-4-yl)-1H-indazole-5-carboxamide]",30 to 200
14,"CCNC(=O)N1CC(n2cc(-c3n[nH]c4cc(OC)c(C(=O)Nc5c(C)cccc5C)cc34)cn2)C1 [Example 30, N-(2,6-Dimethylphenyl)-3-(1-(1-(ethylcarbamoyl)azetidin-3-yl)-1H-pyrazol-4-yl)-6-methoxy-1H-indazole-5-carboxamide]",< 10
15,"COC(=O)N1CC(n2cc(-c3n[nH]c4cc(OC)c(C(=O)Nc5c(C)cccc5C)cc34)cn2)C1 [Example 31, Methyl 3-(4-(5-((2,6-dimethylphenyl)carbamoyl)-6-methoxy-1H-indazol-3-yl)-1H-pyrazol-1-yl)azetidine-1-carboxylate]",< 10
16,"COc1cc2[nH]nc(-c3cnn(C4CN(S(C)(=O)=O)C4)c3)c2cc1C(=O)Nc1c(C)cccc1C [Example 32, N-(2,6-Dimethylphenyl)-6-methoxy-3-(1-(1-(methylsulfonyl)azetidin-3-yl)-1H-pyrazol-4-yl)-1H-indazole-5-carboxamide]",< 10
